± gives the expanded uncertainty stated by the source.
Experiment: xn = mol fraction of the nth substance listed
Settings: 101 kPa, Liquid, Vibrating tube method

CC(C)CC(C)(C)C [2,2,4-trimethylpentane] + c1ccccc1
Settings | mass density [kg/m3]
298.15 K, x2 = 0 | 687.69 ± 0.18
298.15 K, x2 = 0.06106 | 693.48 ± 0.18
298.15 K, x2 = 0.1418 | 701.74 ± 0.17
298.15 K, x2 = 0.2015 | 708.37 ± 0.17
298.15 K, x2 = 0.2685 | 716.35 ± 0.17
298.15 K, x2 = 0.3382 | 725.38 ± 0.16
298.15 K, x2 = 0.399 | 733.9 ± 0.16
298.15 K, x2 = 0.4639 | 743.77 ± 0.16
298.15 K, x2 = 0.5179 | 752.66 ± 0.15
298.15 K, x2 = 0.5986 | 767.18 ± 0.15
298.15 K, x2 = 0.6562 | 778.61 ± 0.14
298.15 K, x2 = 0.7257 | 793.77 ± 0.14
298.15 K, x2 = 0.7993 | 811.66 ± 0.13
298.15 K, x2 = 0.871 | 831.31 ± 0.13
298.15 K, x2 = 0.9483 | 855.37 ± 0.12
308.15 K, x2 = 0 | 679.5 ± 0.18
308.15 K, x2 = 0.07837 | 686.91 ± 0.18
308.15 K, x2 = 0.139 | 693.09 ± 0.18
308.15 K, x2 = 0.2112 | 701.03 ± 0.17
308.15 K, x2 = 0.2701 | 707.99 ± 0.17
308.15 K, x2 = 0.3244 | 714.88 ± 0.17
308.15 K, x2 = 0.3912 | 723.99 ± 0.16
308.15 K, x2 = 0.4607 | 734.35 ± 0.16
308.15 K, x2 = 0.5319 | 745.93 ± 0.15
308.15 K, x2 = 0.6019 | 758.53 ± 0.15
308.15 K, x2 = 0.6669 | 771.38 ± 0.14
308.15 K, x2 = 0.7335 | 785.91 ± 0.14
308.15 K, x2 = 0.7944 | 800.56 ± 0.13
308.15 K, x2 = 0.8662 | 819.8 ± 0.13
308.15 K, x2 = 0.9302 | 839.08 ± 0.12
318.15 K, x2 = 0 | 671.34 ± 0.19
318.15 K, x2 = 0.07013 | 677.83 ± 0.18
318.15 K, x2 = 0.1336 | 684.16 ± 0.18
318.15 K, x2 = 0.2025 | 691.56 ± 0.18
318.15 K, x2 = 0.272 | 699.64 ± 0.17
318.15 K, x2 = 0.3457 | 708.99 ± 0.17
318.15 K, x2 = 0.4011 | 716.6 ± 0.17
318.15 K, x2 = 0.466 | 726.21 ± 0.16
318.15 K, x2 = 0.535 | 737.39 ± 0.16
318.15 K, x2 = 0.5941 | 747.85 ± 0.15
318.15 K, x2 = 0.6592 | 760.41 ± 0.15
318.15 K, x2 = 0.7319 | 775.94 ± 0.14
318.15 K, x2 = 0.7981 | 791.66 ± 0.14
318.15 K, x2 = 0.8656 | 809.56 ± 0.13
318.15 K, x2 = 0.9321 | 829.34 ± 0.12

c1ccccc1 [benzene] + CC(C)CC(C)(C)C
x1 = 1
Settings | mass density [kg/m3]
298.15 K | 873.52 ± 0.11
308.15 K | 862.84 ± 0.11
318.15 K | 852.18 ± 0.11

c1ccccc1 [benzene] + CCC(C)(C)OC
x1 = 1
Settings | mass density [kg/m3]
298.15 K | 873.53 ± 0.11
308.15 K | 862.85 ± 0.11
318.15 K | 852.18 ± 0.11

CCC(C)(C)OC [2-methoxy-2-methylbutane] + c1ccccc1
Settings | mass density [kg/m3]
298.15 K, x2 = 0 | 765.79 ± 1.2
298.15 K, x2 = 0.06414 | 770.46 ± 1.1
298.15 K, x2 = 0.1353 | 775.9 ± 0.97
298.15 K, x2 = 0.2019 | 781.23 ± 0.87
298.15 K, x2 = 0.2693 | 786.88 ± 0.76
298.15 K, x2 = 0.3352 | 792.67 ± 0.67
298.15 K, x2 = 0.4021 | 798.87 ± 0.58
298.15 K, x2 = 0.4653 | 805.02 ± 0.5
298.15 K, x2 = 0.5342 | 812.08 ± 0.43
298.15 K, x2 = 0.6022 | 819.46 ± 0.36
298.15 K, x2 = 0.6671 | 826.93 ± 0.3
298.15 K, x2 = 0.7367 | 835.44 ± 0.24
298.15 K, x2 = 0.7973 | 843.32 ± 0.2
298.15 K, x2 = 0.8665 | 852.89 ± 0.16
298.15 K, x2 = 0.9336 | 862.89 ± 0.13
308.15 K, x2 = 0 | 756.23 ± 1.2
308.15 K, x2 = 0.06701 | 761.09 ± 1.1
308.15 K, x2 = 0.1338 | 766.17 ± 0.96
308.15 K, x2 = 0.2009 | 771.51 ± 0.85
308.15 K, x2 = 0.2672 | 777.02 ± 0.76
308.15 K, x2 = 0.3336 | 782.8 ± 0.66
308.15 K, x2 = 0.4024 | 789.11 ± 0.57
308.15 K, x2 = 0.4715 | 795.77 ± 0.49
308.15 K, x2 = 0.5344 | 802.18 ± 0.42
308.15 K, x2 = 0.6008 | 809.31 ± 0.36
308.15 K, x2 = 0.6685 | 816.98 ± 0.3
308.15 K, x2 = 0.7345 | 824.97 ± 0.24
308.15 K, x2 = 0.7995 | 833.32 ± 0.2
308.15 K, x2 = 0.8625 | 841.93 ± 0.16
308.15 K, x2 = 0.9344 | 852.47 ± 0.13
318.15 K, x2 = 0 | 746.71 ± 1.2
318.15 K, x2 = 0.06757 | 751.58 ± 1.1
318.15 K, x2 = 0.1346 | 756.63 ± 0.94
318.15 K, x2 = 0.2014 | 761.91 ± 0.84
318.15 K, x2 = 0.269 | 767.5 ± 0.74
318.15 K, x2 = 0.3371 | 773.39 ± 0.65
318.15 K, x2 = 0.4031 | 779.4 ± 0.57
318.15 K, x2 = 0.4661 | 785.42 ± 0.49
318.15 K, x2 = 0.5339 | 792.26 ± 0.42
318.15 K, x2 = 0.6012 | 799.41 ± 0.35
318.15 K, x2 = 0.6679 | 806.93 ± 0.3
318.15 K, x2 = 0.7346 | 814.9 ± 0.24
318.15 K, x2 = 0.7994 | 823.13 ± 0.2
318.15 K, x2 = 0.8645 | 831.93 ± 0.16
318.15 K, x2 = 0.9333 | 841.85 ± 0.13

CC(C)CC(C)(C)C [2,2,4-trimethylpentane] + CCC(C)(C)OC
x2 = 0
Settings | mass density [kg/m3]
298.15 K | 687.68 ± 0.16
308.15 K | 679.48 ± 0.16
318.15 K | 671.34 ± 0.16

CCC(C)(C)OC [2-methoxy-2-methylbutane] + CC(C)CC(C)(C)C
Settings | mass density [kg/m3]
298.15 K, x1 = 0.06668 | 691.73 ± 0.16
298.15 K, x1 = 0.1334 | 695.93 ± 0.16
298.15 K, x1 = 0.2065 | 700.7 ± 0.17
298.15 K, x1 = 0.2712 | 705.05 ± 0.18
298.15 K, x1 = 0.3376 | 709.68 ± 0.19
298.15 K, x1 = 0.3977 | 713.99 ± 0.2
298.15 K, x1 = 0.4666 | 719.11 ± 0.22
298.15 K, x1 = 0.527 | 723.75 ± 0.24
298.15 K, x1 = 0.5952 | 729.17 ± 0.26
298.15 K, x1 = 0.6668 | 735.06 ± 0.29
298.15 K, x1 = 0.7314 | 740.58 ± 0.32
298.15 K, x1 = 0.7975 | 746.43 ± 0.36
298.15 K, x1 = 0.8616 | 752.31 ± 0.39
298.15 K, x1 = 0.9325 | 759.06 ± 0.44
298.15 K, x1 = 1 | 765.77 ± 0.49
308.15 K, x1 = 0.06672 | 683.48 ± 0.16
308.15 K, x1 = 0.1383 | 687.9 ± 0.17
308.15 K, x1 = 0.2056 | 692.2 ± 0.17
308.15 K, x1 = 0.2684 | 696.36 ± 0.18
308.15 K, x1 = 0.3406 | 701.28 ± 0.19
308.15 K, x1 = 0.401 | 705.55 ± 0.2
308.15 K, x1 = 0.4585 | 709.75 ± 0.22
308.15 K, x1 = 0.5291 | 715.06 ± 0.24
308.15 K, x1 = 0.5953 | 720.24 ± 0.26
308.15 K, x1 = 0.6632 | 725.74 ± 0.29
308.15 K, x1 = 0.7339 | 731.67 ± 0.32
308.15 K, x1 = 0.7946 | 736.96 ± 0.35
308.15 K, x1 = 0.8646 | 743.27 ± 0.39
308.15 K, x1 = 0.9319 | 749.58 ± 0.44
308.15 K, x1 = 1 | 756.19 ± 0.48
318.15 K, x1 = 0.06682 | 675.24 ± 0.17
318.15 K, x1 = 0.1368 | 679.49 ± 0.17
318.15 K, x1 = 0.1974 | 683.27 ± 0.17
318.15 K, x1 = 0.2673 | 687.79 ± 0.18
318.15 K, x1 = 0.3375 | 692.5 ± 0.19
318.15 K, x1 = 0.401 | 696.91 ± 0.21
318.15 K, x1 = 0.4676 | 701.69 ± 0.22
318.15 K, x1 = 0.5324 | 706.5 ± 0.24
318.15 K, x1 = 0.5984 | 711.56 ± 0.26
318.15 K, x1 = 0.6593 | 716.41 ± 0.29
318.15 K, x1 = 0.7309 | 722.32 ± 0.32
318.15 K, x1 = 0.7982 | 728.08 ± 0.35
318.15 K, x1 = 0.8669 | 734.18 ± 0.39
318.15 K, x1 = 0.932 | 740.18 ± 0.43
318.15 K, x1 = 1 | 746.69 ± 0.48

Reference: the NIST ThermoML archive (doi:10.1016/j.fluid.2012.09.007)
